Data: ChEMBL document CHEMBL3044859, “Antimicrobial activity of Schiff bases of coumarin-incorporated 1,3,4-oxadiazole derivatives: an in vitro evaluation” (2013)

Experiments:
Type in all cases: functional
[1] = system: Escherichia coli; assay: Antibacterial activity against Escherichia coli […] at 100 ug/ml by cup-plate method; settings: read-out: DIZ
[2] = system: Candida albicans; assay: Growth inhibition of Candida albicans ATCC 10231 at 100 ug/ml by cup-plate method relative to control; settings: read-out: GI
[3] = system: Staphylococcus aureus; assay: Growth inhibition of Staphylococcus aureus […] at 100 ug/ml by cup-plate method relative to control; settings: read-out: GI
[4] = system: Staphylococcus aureus; assay: Antibacterial activity against Staphylococcus aureus […] at 100 ug/ml by cup-plate method; settings: read-out: DIZ
[5] = system: Candida albicans; assay: Antifungal activity against Candida albicans ATCC 10231 at 100 ug/ml by cup-plate method; settings: read-out: DIZ

SMILES	zone of inhibition at 100 µg/mL [1] [mm]	inhibition of growth at 100 µg/mL [2] [%]	inhibition of growth at 100 µg/mL [3] [%]	zone of inhibition at 100 µg/mL [4] [mm]	zone of inhibition at 100 µg/mL [5] [mm]
NNC(=O)c1cc2ccccc2oc1=O	9	40	40	10	8
COc1ccccc1/C=N/c1nnc(-c2cc3ccccc3oc2=O)o1	15	65	56	14	13
COc1cccc(/C=N/c2nnc(-c3cc4ccccc4oc3=O)o2)c1	15	70	56	14	14
O=c1oc2ccccc2cc1-c1nnc(/N=C/c2ccccc2F)o1	10	65	48	12	13
O=c1oc2ccccc2cc1-c1nnc(/N=C/c2ccc([N+](=O)[O-])cc2)o1	12	–	64	17	–
O=c1oc2ccccc2cc1-c1nnc(/N=C/c2cccc(F)c2)o1	10	55	48	12	11
O=c1oc2ccccc2cc1-c1nnc(/N=C/c2ccccc2)o1	20	60	80	20	12
O=c1oc2ccccc2cc1-c1nnc(/N=C/c2cccc(Cl)c2)o1	17	70	–	–	14
O=c1oc2ccccc2cc1-c1nnc(/N=C/c2ccc(Cl)cc2)o1	17	75	–	–	15
O=c1oc2ccccc2cc1-c1nnc(/N=C/c2ccccc2Cl)o1	17	65	–	–	13
O=c1oc2ccccc2cc1-c1nnc(/N=C/c2ccc(F)cc2)o1	15	50	48	12	10
COc1ccc(/C=N/c2nnc(-c3cc4ccccc4oc3=O)o2)cc1	10	60	56	14	12
CN(C)c1ccc(/C=N/c2nnc(-c3cc4ccccc4oc3=O)o2)cc1	12	80	48	12	16
O=c1oc2ccccc2cc1-c1nnc(/N=C/c2ccccc2[N+](=O)[O-])o1	14	–	64	17	–
O=c1oc2ccccc2cc1-c1nnc(/N=C/c2cccc(O)c2)o1	15	55	40	10	11
O=c1oc2ccccc2cc1-c1nnc(/N=C/c2ccccc2O)o1	12	50	40	10	10
COc1ccc(/C=N/c2nnc(-c3cc4ccccc4oc3=O)o2)cc1OC	10	50	48	12	10
O=c1oc2ccccc2cc1-c1nnc(/N=C/c2ccc(O)cc2)o1	10	45	40	10	9
O=c1oc2ccccc2cc1-c1nnc(/N=C/c2cccc([N+](=O)[O-])c2)o1	12	–	64	17	–
O=C(O)c1cn(C2CC2)c2cc(N3CCNCC3)c(F)cc2c1=O [CIPROFLOXACIN]	–	–	100	25	–
CC(=O)N1CCN(c2ccc(OCC3COC(Cn4ccnc4)(c4ccc(Cl)cc4Cl)O3)cc2)CC1 (configuration not stated) [KETOCONAZOLE]	–	100	–	–	20
